Experimental data from PMC5907308, “21st Brazilian Diabetes Society Congress” (Diabetology & Metabolic Syndrome, 2018).
Where two headings read alike, the source gives them in different places.

Legend:
[1] = system: patients after Roux-en-Y gastric bypass; assay: Postprandial hyperinsulinemic hypoglycemia after RYGB, case series; type: in vivo, human
Description: Cases report: Case (1) A person developed postprandial hypoglycemic episodes 6 years after Roux-en-Y gastric bypass (RYGB). A mixed meal tolerance test (MMTT, 500 kcal, 20% protein, 20% fat and 60% carbohydrates) was performed, leading to symptomatic postprandial hyperinsulinemic hypoglycemia (PHH) with a nadir of 45 mg/dL at 120 min (insulin of 8 mU/L; C-peptide of 3.21 ng/mL). […] Cases 2 and 3). Two […] women presented hypoglycemia following meals 3 and 5 years after RYGB. MMTT (120 min): glycemia of 34 mg/dL, insulin of 17 mU/L and C-peptide of 6.23 ng/mL and, in the second one, glycemia of 52 mg/dL, insulin of 9 mU/L and C-peptide of 2.7 ng/mL. PT and MRCP were normal in both cases. […] Case 4). A person who underwent RYGB 1.5 years ago reported hypoglycemic episodes in the last 6 months. MMTT: glycemia of 26 mg/dL at 150 min, insulin of 34 mU/L and C-peptide of 6.03 ng/mL. […] They were submitted to distal pancreatectomy and symptoms disappeared after diazoxid and hydrochlorothiazide. Case 5). A person developed hypoglycemia 10 years after RYGB. […] MMTT: glycemia of 43 mg/dL at 120 min, insulin of 100 mU/L and C-peptide of 1.95 ng/mL. […] Antiinsulin antibodies were negative in all cases (Table 1).

[2] = system: patient with T2DM; assay: Case report: endogenous hyperinsulinism in T2DM; type: in vivo, human; settings: Acarbose prescribed 2 years ago; Verapamil 80 mg/day with dietary changes
Description: patient three diagnosed with type 2 diabetes (T2DM), using insulin for 22 years. Eight years ago, they started to present frequent episodes of symptomatic hypoglycemia, preferably in fasting periods. There was no cessation of the episodes even with the suspension of all insulin and antidiabetic drugs, which lead to an investigation with a prolonged fasting test (Table 1). The test confirmed endogenous hyperinsulinism (EH). […] They were then submitted to a selective arterial calcium stimulation test (SACST), whose results excluded insulinoma. […] Verapamil (80 mg/day) was initiated along with dietary changes, with good response.

[3] = system: hypothalamus of young rats; assay: Chronic ICV treatment with the nitric oxide donor GSNO; type: in vivo, rat
[4] = system: T2DM patients; settings: monotherapy; systematic review and mixed treatment meta-analyses comparison of RCTs; cited from earlier work
Description: Results: All DPP4 presented a statistically significant change of HbA1c from baseline compared to placebo (alogliptin − 0.797 (95%CI − 0.943 to − 0.651); linagliptin − 0.734 (CI − 0.88 to − 0.588); saxagliptin − 0.593 (CI − 0.811 to − 0.375); sitagliptin -0.788 (CI − 0.954 to − 0.622); vildagliptin −0.60 (CI − 0.80 to − 0.40)). Based on drug acquisition costs, alogliptin monotherapy presented the lowest annual treatment costs and the lowest cost for every 1% HbA1c reduction followed by saxagliptin, linagliptin, sitagliptin and vildagliptin (Table 1).

[5] = system: patients with T1DM; assay: High dose vitamin D for 12 weeks, DKD/albuminuria pilot study; type: in vivo, human
Description: Methods: 22 patients received doses of 4000 and 10000 IU/day of cholecalciferol for 12 weeks according to patient’s previous VD levels. They were submitted to continuous glucose monitoring system (CGMS), 24-h ABPM and urine albumin-to-creatinine ratio (UACR) before and after VD supplementation.

[6] = system: male Wistar rats; type: in vivo, rat
Description: In addition, experimental studies of effects of different doses are important in assessing the safety of a drug. The objective was to evaluate the lipid biomarkers in rats treated with several doses of prednisone. […] The treatment was daily for of 21 days, with weekly measures of body weight, food consumption and calories ingested on days 0, 8 and 16 of treatment. On the last day, the caloric gain was evaluated and then the rats were anesthetized and killed by decapitation to collect the whole blood for serum biochemical analyzes. All data were statistically evaluated with significance of 5%.

[7] = system: Normoglycemic adult Wistar rats; settings: for TOTG glycemia, 120 min: CONT 93.7 ± 4.1
Description: The side effects are primarily determined by dosage and time of use. The objective was to evaluate the effects of increasing doses of PRD on the action of endogenous insulin in Wistar rats. Normoglycemic adult rats weighing 450–510 g were divided into 5 groups, differentiated by their daily treatment (18 days) orally, as the PRD dose used [CONT, PRD1 (0.625 mg/kg), PDR2 (1.250 mg/kg), PRD3 (2.500 mg/kg) and PRD4 ([…])]. Rats received water and food ad libitum, and on 0, 8 and 16 days of treatment the fasting glycemia was measured. On the 17th day, the oral glucose tolerance test (TOTG) was performed, collecting blood for glucose levels at fasting times (− 1 min) and 30, 60 and 120 min after administration of glucose solution. […] The data were statistically analyzed with significance of 5%.

[8] = system: patients submitted to liver transplantation; type: in vivo, human; settings: Tacrolimus 95% CI 1.2–32.5, p = 0.029; PDN 95% CI 2.4–21, 8, p < 0.001
Description: A total of 152 patients were included. […] Comparisons were done with Chi square tests and analysis of independent risk factors with multivariate logistic regression.

[9] = system: male rats with mild diabetes (neonatal streptozotocin); type: in vivo, rat
Description: Background: The prednisone (PRD) is a glucocorticoid that may lead to the development of temporary hyperglycemia. […] The objective was to evaluate the effects of PRD in mild diabetic rats by biochemical and immunological biomarkers. […] The rats were separated into 4 groups: control (C), treated control C + PRD (oral treatment of 1.25 mg/kg/day PRD); diabetic DM (mild diabetes) and treated diabetic DM + PRD (mild diabetes, treatment with same dose as C + PRD group). Untreated groups received vehicle, adjusted volume according to body weight. The treatment daily for 21 days and it were weekly measured the body weight, food and water intake, and glycemia. In the 3rd week of treatment, the oral glucose tolerance test (OGTT) and insulin tolerance test (TTI) were performed, area under the glycemic curve (ASC) values were calculated. In the 21st day, the rats were killed and the blood was collected for serum biochemical, leukogram and immunoglobulin G determinations. All data was statistically evaluated with 5% significance.

[10] = system: patient with DM2 and PAH; assay: Vildagliptin in T2DM with pulmonary arterial hypertension, case report; type: in vivo, human
Description: The main etiology of pulmonary arterial hypertension (PAH) is idiopathic. In more than one-third of these cases, patients have criteria for metabolic syndrome. Alone, obesity, dyslipidemia and type 2 diabetes mellitus (T2DM) have a direct and indirect relationship in the pathophysiology of PAH. The presence of glucagon-like peptide-1 (GLP1) receptors in different organs of our body gives this incretin several pleiotropic effects, in addition to its already well established role in the treatment of obesity and T2DM. […] Considering this and using a weight-neutral incretin-based therapy, we opted for the use of a DPP4 inhibitor (vildagliptin 50 mg 2×/day) to increase GLP1 levels in a patient with DM2, hypertension, dyslipidemia, obesity grade I (BMI of 30.2 kg/m2) and PAH.

[11] = system: patient with metastatic melanoma; assay: Ipilimumab endocrinological side effects, case report; type: in vivo, human
Description: In the last couple of years, monoclonal antibodies have emerged as effective therapies for advanced neoplasms. […] CTLA-4 is expressed on the surface of T lymphocytes and transmits an inhibitory signal through its B7-1/2 linker. In blocking the CTLA-4, Ipilimumab promotes an enhancement of T cell activation against neoplasms. During the treatment, the activation of these cells can also be directed to different organs/tissues and affect the skin (dermatitis), gastrointestinal tract (colitis, pancreatitis, hepatitis), lung (pneumonitis) and endocrine glands (thyroiditis, hypophysitis, adrenalitis). […] The patient is a person previously healthy, with a diagnosis of metastatic melanoma. They were subjected to surgical removal of the skin lesion and infraclavicular lymph node, in addition to adjuvant treatment with Ipilimumab. They performed four cycles of this medication and evolved with asthenia, headache, abdominal pain and hyperglycemia, about 3 weeks after the last cycle. They were hospitalized and during the medical investigation the following were detected: low ACTH, low cortisol and hyperprolactinemia—characterizing hypophysitis. Furthermore, there was an elevation of amylase and lipase and hyperglycemia, with levels above 400 mg/dL, requiring insulinization. […]

[12] = 0.625 mg/kg daily orally (PRD1)
[13] = 1.250 mg/kg daily orally (PRD2)

## C[C@H]1O[C@H](O[C@H]2[C@H](O)[C@@H](O)[C@@H](O[C@H]3[C@H](O)[C@@H](O)C(O)O[C@@H]3CO)O[C@@H]2CO)[C@H](O)[C@@H](O)[C@@H]1N[C@H]1C=C(CO)[C@@H](O)[C@H](O)[C@H]1O (some centres unmarked) [Acarbose]
[1]; Case 5
  clinical response of postprandial hypoglycemia: controlled their symptoms
[1]; Cases 2 and 3
  clinical response of postprandial hypoglycemia: Improvement occurred
[2]
  response of hypoglycemia episodes: no improvement

## N[C@@H](CCC(=O)N[C@@H](CSN=O)C(=O)NCC(=O)O)C(=O)O [GSNO]
[3]
  S-nitrosation of insulin signalling proteins in the hypothalamus: enhance S-NO of IRβ and Akt
  food intake and body weight: increased food intake and body weight

## N[C@@H](CC(=O)N1CCn2c(nnc2C(F)(F)F)C1)Cc1cc(F)c(F)cc1F [Sitagliptin, sitagliptin]
[4]
  change of HbA1c from baseline compared to placebo: -0.788

## C=C1CC[C@H](O)C/C1=C/C=C1\CCC[C@]2(C)[C@@H]([C@H](C)CCCC(C)C)CC[C@@H]12 [VD, cholecalciferol]
[5]; 8/13 patients, 12 weeks
  patients with DKD at the beginning whose DKD stage improved: 62%
[5]; cholecalciferol 4000 or 10000 IU/day for 12 weeks, n = 22, 68% before
  DKD prevalence at the end of the study: 32%

## COc1ccc(CCN(C)CCCC(C#N)(c2ccc(OC)c(OC)c2)C(C)C)cc1OC (centres unmarked) [Verapamil]
[2]
  response of hypoglycemia episodes: good response

## C[C@]12C=CC(=O)C=C1CC[C@@H]1[C@@H]2C(=O)C[C@@]2(C)[C@H]1CC[C@]2(O)C(=O)CO [prednisone]
[6]; 5.0 mg/Kg daily (PRD2), n = 7
  calories ingested, 16th day of treatment: 93.2 ± 20.4 kcal/day
  calories ingested, day 0: 63.7 ± 12.3 kcal/day
  calories ingested, day 8 of treatment: 69.0 ± 18.1 kcal/day
[6]; 2.5 and 5.0 mg/Kg, 21 days, p > 0.05
  body weight, dietary intake, serum triglyceride, total cholesterol, VLDL, LDL, non-HDL cholesterol: no differences
[7]; 0.625 mg/kg (PRD1), day 17, CONT 87.7 ± 5.7
  TOTG glycemia, time -1 min: 106 ± 5.8 mg/dL
[7]; 0.625 mg/kg (PRD1)
  TOTG glycemia, 120 min: 122.8 ± 15.7 mg/dL
[7]; [12]
  fasting glycemic increase compared to CONT, day 8: 30%
  fasting glycemic increase compared to CONT, day 16: 20%
[7]; 0.625 mg/kg vs PRD4
  glycemia increase of PRD1 compared to PRD4, day 16: 16%
[7]; 1.250 mg/kg (PRD2)
  TOTG glycemia, 120 min: 120.6 ± 11.6 mg/dL
[7]; [13]
  fasting glycemic increase compared to CONT, day 8: 27%
  fasting glycemic increase compared to CONT, day 16: 9%
[7]; PRD4
  ASCp, increased glycemic load vs CONT, interval 30–60 min: 36%
[8]
  independent risk factor for PTDM, OR: 7.2
[9]; DM + PRD, 1.25 mg/kg/day
  glycemia increasing vs C group, all weeks of treatment: 51%
[9]; DM + PRD, day 21
  lymphocytes, increase vs C group: 19%
  neutrophils, increase vs C group: 200%
  total leukocytes, increase vs C group: 30%
[9]; DM + PRD, oral 1.25 mg/kg/day
  food intake increasing vs C group, 2nd and 3rd week: 18%
[9]; DM + PRD, serum
  high-density lipoprotein, decrease vs C group: 8%
  triglycerides, decrease vs C group: 21%
  very low-density lipoproteins, decrease vs C group: 10%
[9]; DM + PRED group, 3rd week
  OGTT glycemia, 30 min: 275 mg/dL
  OGTT glycemia, 60 min: 258 mg/dL
  OGTT glycemia, 120 min: 161 mg/dL
[9]; DM and DM + PRD groups
  body weight decrease, all measures: about 27%

## N#C[C@@H]1CCCN1C(=O)CNC12CC3CC(CC(O)(C3)C1)C2 [vildagliptin]
[10]; 50 mg 2×/day, 6 months after its use, 45 mmHg before
  right ventricular systolic pressure (RVSP): 38 mmHg
[10]; 6 months after its use
  fasting glycemia: 111 mg/dL
[10]; 6 months after its use, without episodes of hypoglycemia
  A1c: 6.0%
[10]; January/2017
  A1c: 6.5%
  fasting glycemia: 112 mg/dL
[10]; January/2017, 3 years of follow up
  RVSP: 31 mmHg
[4]
  change of HbA1c from baseline compared to placebo: −0.60

## Ipilimumab
[11]; four cycles, adjuvant treatment, about 3 weeks after the last cycle
  endocrinological side effects: hypophysitis and pancreatitis, in addition to secondary diabetes
[11]; requiring insulinization
  hyperglycemia, levels: above 400 mg/dL
